Test results from US5527900A, “N3-alkyl-2',5'-0-silylated-3'-spiro-thymidine derivatives” (Stitching Rega VZW, priority 1991, dated 1996).
Values after ≈ are worked out from the molar mass of the structure shown. Where two headings read alike, the source gives them in different places.

Tests used:
HIV-1 (HTLV-IIIB) = assay: Anti-retrovirus activity: inhibition of HIV-1-induced cytopathogenicity in MT-4 cells; assay type: cell-based; settings: for EC50: Human immunodeficiency virus 1, IIIB; for S.I. (Selectivity Index): Table 1, CC50/EC50, MT-4 cells
From the text: The viruses used were moloney murine sarcoma virus (MSV), HIV-1 (strain HTLV-IIIB, kindly provided by R. C. Gallo and M. Popovic, National Cancer Institute, Bethesda, Md.), HIV-2 (strain LAV-2(ROD)), kindly provided by L. Montagnier (Pasteur Institute, Paris, France), simian immunodeficiency virus (SIV) (strain SIVMAC251, kindly provided by C. Bruck, RIT-Smith-Kline, Rixensart, Belgium).
(§1) In order to evaluate the inhibitory effects against retrovirus-induced cytopathogenicity in MT-4cells, said cells (5×10^5 cells/ml) were suspended in fresh culture medium and infected with HIV-1, HIV-2 or SIOV at 100 times the cell culture infective dose-50 (CCID50) per ml cell suspension (1 CCID50 being the dose infective for 50% of the cell cultures). Then, 100 μl of the infected cell suspension were transferred to microplate wells, mixed with 100 μl of the appropriate dilutions of the test compounds, and further incubated at 37° C. After 5 days, the number of viable cells was determined in a blood cell-counting chamber by trypan blue staining for both virus-infected and mock-infected cell cultures.

MT-4 cell DNA synthesis = assay: Incorporation of radiolabeled precursors into MT-4 cell DNA; assay type: cell-based; settings: Homo sapiens
From the text: (§2) The radiolabeled nucleosides [methyl-^3 H]dThd (specific radioactivity: 40 Ci/mmol), [5-^3 H]dUrd (specific radioactivity: 27 Ci/mmol), [5-^3 H]dCyc (specific radioactivity: 18.2 Ci/mmol) and the radiolabeled amino acid L-[4,5-^3 H]leucine (specific radioactivity: 52 Ci/mmol were derived from the Radiochemcial Centre (Amersham, England); [5-^3 H]Urd (specific radioactivity: 21 Ci/mmol) and [5-^3 H]Cyd (specific radioactivity: 21 Ci/mmol) and were obtained from Moravek Biochemicals Inc. (Brea, Calif.)
(§3) The incorporation of [methyl-^3 H]dThd, [5-^3 H]dUrd, [5-^3 H]dCyd, [5-^3 H]Urd, [5-^3 H]Cyd and L-[4,5-^3 H]1eu into TCA-insoluble MT-4 cell material was measured in wells of a 96-well microtiter plate (Falcon-3072, Becton-Dickinson, New Jersey). To each well were added 10^5 MT-4 cells, 0.25 μCi of the radiolabeled precursor and a given amount of test compound. The cells were allowed to proliferate for 20 to 24 hr at 37° C. in a humidified, CO2 -controlled atmosphere. At the end of this incubation period, the contents of the wells (200 μl) were brought onto 25-mm glass fiber filters (type A/E, Gelman Instrument Company, Ann Arbor, Mich.), and mounted on a Millipore 3025 sampling manifold apparatus. The filters were washed twice with 2 ml and 5 ml cold NaCl/Pi (phosphte-buffered saline), twice with 2 and 5 ml cold 10% trichloroacetic acid (TCA), twice with 5 and 7.5 ml cold 5% TCA, and twice with 1 ml cold ethanol.

[1] = tested on: MT-4 cell protein synthesis; assay: Incorporation of radiolabeled leucine into MT-4 cell protein; assay type: cell-based; settings: Homo sapiens
From the text: as §2, §3

MT-4 cell RNA synthesis = assay: Incorporation of radiolabeled precursors into MT-4 cell RNA; assay type: cell-based; settings: Homo sapiens
From the text: as §2, §3

[2] = Partition coefficient (Pa) between 1-octanol and 10 mM potassium phosphate buffer; assay type: physicochemical; settings: 1-octanol / 10 mM potassium phosphate buffer, pH 7.5, 50 μM; for logD at 50 µM: room temperature
Method: Partition of the test compounds between 1-octanol (Merck, Darmstadt, Germany) and 10 mM potassium phosphate buffer, pH, 7.5 (Merck), was measured as described in Balzarini et al., Biochem, Biophys. Res. Commun. 158: 413-422 (1989). Briefly, a 50 μM concentration of the test compound in potassium phosphate buffer was thoroughly mixed with an equal volume of 1-octanol for 30 min at room temperature. Then, the mixture was further equilibrated at room temperature and UV absorption was measured for the aqueous and alcoholic liquid phases. The partition coefficient (Pa) was calculated as the ratio of the compound concentration present in the 1-octanol phase to the compound concentration present in the aqueous phase.

MT-4 cells [3] = assay: Cytotoxicity for mock-infected MT-4 cells; settings: at 100 μg/ml
Method: as §1

[4] = Cytotoxicity for mock-infected MT-4 cells; settings: human, mt-4 cells
Method: as §1

HIV-1 mutant strains = assay: Resistance of HIV-1 strains selected against compounds 5, 6 and 7; assay type: cell-based
[5] = tested on: MT-4 cell DNA, RNA or protein synthesis; assay: Incorporation of radiolabeled DNA, RNA or protein precursors into TCA-insoluble MT-4 cell material (summary in words); assay type: cell-based; settings: at 100 μg/ml
From the text: as §2, §3

HIV-1 = assay: Antiviral activity upon delayed addition to HIV-1-infected MT-4 cells; assay type: cell-based; settings: for decrease of antiviral activity on delayed addition: addition delayed by 17-24 hours, data not shown; for antiviral activity on delayed addition: addition delayed by 41 to 48 hours
Method: as §1
Mt-4 cells were suspended in culture medium, infected with HIV-1 and brought into microplate wells as described above. […] After 5 days, the number of viable cells was determined and the EC50 and CC50 values for the test compounds were defined as described in example 1.

MT-4 cells [6] = assay: Cytotoxicity for MT-4 cells depending on exposure time; assay type: cell-based; settings: time of contact with the cells varied
Method: The toxicity of test compounds upon a 2-hr incubation period was determined by exposing MT-4 cells (3.5×10^5 cells/ml) to 100, 20, 4, 0.8 or 0.16 μg/ml of the test compounds for 2 hours at 37° C. Subsequently the cells were washed with culture medium. The pretreated cells were seeded in microplate wells at 70×10^3 cells/200 μl-well and allowed to grow for 3 days at 37° C. Control cultures received similar concentrations of the test compounds during the whole incubation period. Then, cells were counted in a Coulter counter (Harpenden Hertz, England) and the CC50 values were determined for each compound.
Mt-4 cells were suspended in culture medium, infected with HIV-1 and brought into microplate wells as described above.

HIV-2 strain (EHO) = assay: Activity against HIV-2 strain EHO; assay type: cell-based
[7] = MT4, MT-4 cells, 20 to 24 hr, read-out: IC50, [5-3H]dCyd incorporation
[8] = MT4, MT-4 cells, 20 to 24 hr, read-out: IC50, [5-3H]dUrd incorporation
[9] = MT4, MT-4 cells, 20 to 24 hr, read-out: IC50, [methyl-3H]dThd incorporation
[10] = MT4, MT-4 cells, 20 to 24 hr, read-out: IC50, L-[4,5-3H]leucine incorporation
[11] = MT4, MT-4 cells, 20 to 24 hr, read-out: IC50, [5-3H]Cyd incorporation
[12] = MT4, MT-4 cells, 20 to 24 hr, read-out: IC50, [5-3H]Urd incorporation

| SMILES | EC50 (HIV-1 (HTLV-IIIB); MT4, 120 h) | S.I. (Selectivity Index) (HIV-1 (HTLV-IIIB)) | IC50 (MT-4 cell DNA synthesis; [7]) | IC50 (MT-4 cell DNA synthesis; [8]) | IC50 (MT-4 cell DNA synthesis; [9]) | IC50 [1, 10] | IC50 (MT-4 cell RNA synthesis; [11]) | IC50 (MT-4 cell RNA synthesis; [12]) | presence in the n-octanol phase compared to the aqueous phase [2] | logD at 50 µM [2] | cytotoxicity to MT-4 cells (in words) (MT-4 cells [3]) | CC50 at 120 h [4] | amino acid change in reverse transcriptase of HIV-1 strains selected for resistance (HIV-1 mutant strains) | inhibition of incorporation of dThd, dUrd, dCyd, Urd, Cyd or leucine [5] | decrease of antiviral activity on delayed addition (HIV-1) | antiviral activity on delayed addition (HIV-1) | also measured |
| --- | --- | --- | --- | --- | --- | --- | --- | --- | --- | --- | --- | --- | --- | --- | --- | --- | --- |
| Cc1cn([C@@H]2O[C@H](CO[Si](C)(C)C(C)(C)C)[C@@]3(OS(=O)(=O)C=C3N)[C@H]2O[Si](C)(C)C(C)(C)C)c(=O)n(C)c1=O [Compound 6] | 0.034 µg/mL (≈ 0.0563 µM) | 4088 | > 100 µg/mL | > 100 µg/mL | > 100 µg/mL | > 100 µg/mL | > 100 µg/mL | > 100 µg/mL | more than 95% | > 1.3 | not cytotoxic | 139 µg/mL (≈ 230 µM) | glutamic acid change at position 138 to lysine | did not markedly inhibit | 10 fold | almost totally lost | Selectivity Index (HIV-1 (HTLV-IIIB)): 4088; EC50 (HIV-1 (HTLV-IIIB); MT4, read-out: 50% effective concentration (EC50)): 0.034 µg/mL (≈ 0.0563 µM) |
| Cc1cn([C@@H]2O[C@H](CO[Si](C)(C)C(C)(C)C)[C@@]3(OS(=O)(=O)C=C3N)[C@H]2O[Si](C)(C)C(C)(C)C)c(=O)[nH]c1=O [Compound 5, {1-[2', 5'-Bis-O-(tert-butyldimethylsilyl)-β-D-ribofuranosyl]thymine}-3'-spiro-5"-{4"-amino-1",2"-oxathiole-2", 2"-dioxide}] |  |  |  |  |  |  |  |  | more than 95% | > 1.3 | not cytotoxic | 7.7 µg/mL (≈ 13.1 µM) | glutamic acid change at position 138 to lysine |  | 10 fold | almost totally lost | toxicity for MT-4 cells depending on contact time (MT-4 cells [6]): not affected by the time that the compound had remained in contact with the cells; IC50 (MT-4 cell DNA synthesis; MT4, read-out: IC50, [5-3H]dCyd incorporation): 115 µg/mL (≈ 195 µM); IC50 (MT-4 cell DNA synthesis; MT4, read-out: IC50, [5-3H]dUrd incorporation): 9.1 µg/mL (≈ 15.4 µM); IC50 (MT-4 cell DNA synthesis; MT4, read-out: IC50, [methyl-3H]dThd incorporation): 13 µg/mL (≈ 22 µM); IC50 ([1]; MT4, read-out: IC50, L-[4,5-3H]leucine incorporation): 11.6 µg/mL (≈ 19.7 µM); IC50 (MT-4 cell RNA synthesis; MT4, read-out: IC50, [5-3H]Cyd incorporation): 8 µg/mL (≈ 13.6 µM); IC50 (MT-4 cell RNA synthesis; MT4, read-out: IC50, [5-3H]Urd incorporation): 11 µg/mL (≈ 18.6 µM) |
| CC(C)(C)[Si](C)(C)OC[C@H]1O[C@@H](n2ccc(N)nc2=O)[C@H](O[Si](C)(C)C(C)(C)C)[C@]12OS(=O)(=O)C=C2N [Compound 14, {1-[2', 5'-Bis-O-(tert-butyldimethylsilyl)-β-D-ribofuranosyl]-cytosine}-3'-spiro-5"-{4"-amino-1",2"-oxathiole-2",2"-dioxide}] | 0.439 µg/mL (≈ 0.764 µM) | ≥ 456 | > 100 µg/mL | > 100 µg/mL | > 100 µg/mL | > 100 µg/mL | > 100 µg/mL | > 100 µg/mL | more than 95% | > 1.3 | not cytotoxic | ≥ 200 µg/mL |  | did not markedly inhibit |  |  | activity against HIV-2 strain (EHO) (HIV-2 strain (EHO)): inactive |
